# Measured values as given in patent publication US12605407B2, “Methods to induce terminal differentiation in stem cells by interfering with DNA replication, methods of inducing pancreatic differentiation, and differentiated cells obtained thereof” (priority 2018, dated 2026).
# What was measured:
# [1] = test system: sc-beta cell clusters; experiment: Static glucose stimulated C-peptide secretion; assay type: cell-based, human; conditions: 2 mM versus 20 mM glucose
# Experimental: Krebs Ringer buffer (KRB) was prepared by addition of 129 mM NaCl, 4.8 mM KCl, 2.5 mM CaCl2), 1.2 mM MgSO4, 1 mM Na2HPO4, 1.2 mM KH2PO4, 5 mM NaHCO3, 10 mM HEPES and 0.1% BSA in deionized water and was sterilized using 0.22 μm filter. 2 mM and 20 mM glucose solution were prepared in KRB for low glucose and high glucose challenge of sc-beta cell clusters. 10-20 sc-beta cell clusters (about 5×10^5 cells) were collected from control and cells treated with cell cycle inhibitors including APH and treated conditions and pre-incubated in 500 μl low glucose solution for 1 hour. Clusters were then washed once with low glucose solution and sequentially incubated in 200 μl of low glucose and then high glucose solution for 30 minutes. 130 μl supernatant of each condition were collected. Supernatants containing secreted C-peptide stimulated by low and high glucose were processed using Mercodia Ultrasensitive Human C-peptide ELISA kit. Fold changes of C-peptide secretion before and after glucose stimulation were calculated.
# Insulin positive cells were isolated based on GFP expression and the expressions of genes related to the maturation of beta cells including PDX1, NKX6.1, MAFA and insulin were evaluated (FIG. 6A). […] In addition, the C-peptide secretion was increased 2-6-fold, with an average of 3-fold, in response to high levels of glucose (FIG. 6D).
# [2] = test system: stem cell derived beta cells; experiment: Stability of beta cell identity in long-term culture after removal of compound at day 27; assay type: cell-based, human
# Experimental: The beta cell clusters were dissociated using TrypLE™ Express into single cells. Cells were fixed with 4% PFA for 10 min and followed by permeabilization at −20° C. with cold methanol for 10 min. Primary antibodies were added at a dilution of 1:100 in autoMACs Rinsing Solution (Cat. No. 130-091-222, Miltenyi Biotec) containing 0.5% BSA at 4° C. for 1 hour. Secondary antibodies were added at a dilution of 1:500 at room temperature for 1 hour. The cells were filtered with BD Falcon 12×75 mm tube with cell strainer cap (Cat. No. 352235, BD) and subsequently analyzed by flow cytometer. Data were analyzed using Flowjo software. Negative controls were performed by only adding secondary antibodies.
# With APH, a high proportion of cells in the islet-like clusters were positive for C-peptide and NKX6.1, a transcription factor for maintaining the beta cell identity and functional maturation (Schaffer et al., 2013). […] Beta cells were cultured for additional 7 days until about day 34 and 30 days until about day 60 upon removal of these compounds at day 27. […] In contrast, in APH treated cells, there was no decrease in C-peptide or NKX6.1 on day 34 (FIG. 5A). […] After further culturing of the cells for extra 30 days, very few of cells in control group remained GFP expression and were positive for C-peptide.
# The ability of other DNA replication inhibitors to stabilize the beta cell identity was investigated. The expressions of GFP were maintained after releasing cells from these inhibitors for 7 days until day 34. With additional 30 days of culture, the expressions of GFP were reduced in all conditions at certain levels, but the cells treated with Cis and Eto expressed higher GFP than the cells treated with APH compared to the other conditions (FIG. 5E, FIG. 5F).
smiles,measurement,setting,value
"C[C@@]1(CO)[C@H](O)CC[C@@]2(C)[C@H]1CC[C@H]1C[C@@H]3C[C@@]12CC[C@]3(O)CO [APH, Aphidicolin]",C-peptide secretion increase in response to high levels of glucose,[1],2-6 fold
same,"C-peptide secretion increase in response to high levels of glucose, average",[1],3 fold
same,"percentage of C-peptide positive cells, and C-peptide and NKX6.1 double positive cells, relative to day 27 before releasing",[2]; after 7 days of releasing cells from APH (day 34),comparable
same,C-peptide or NKX6.1,"[2]; day 34, APH removed on day 27",no decrease
same,number of GFP and C-peptide positive cells compared to day 27 before removal,[2]; day 60,decreased
same,percentage of C-peptide positive cells,"[2]; day 60, APH treatment days 15-27",about 34%
